For orientation: inhibition means the relative decrease from the control value, in per cent. A higher inhibition goes with strong suppression.

In the assay the target is T1, ERG channel (rapid delayed rectifier potassium channel, IKr) (Ovis aries, UniProt A0ACI6Q0V2).
T1 construct: gene KCNH2; native IKr in isolated left ventricular myocytes
T1 sequence (A0ACI6Q0V2 1-1163): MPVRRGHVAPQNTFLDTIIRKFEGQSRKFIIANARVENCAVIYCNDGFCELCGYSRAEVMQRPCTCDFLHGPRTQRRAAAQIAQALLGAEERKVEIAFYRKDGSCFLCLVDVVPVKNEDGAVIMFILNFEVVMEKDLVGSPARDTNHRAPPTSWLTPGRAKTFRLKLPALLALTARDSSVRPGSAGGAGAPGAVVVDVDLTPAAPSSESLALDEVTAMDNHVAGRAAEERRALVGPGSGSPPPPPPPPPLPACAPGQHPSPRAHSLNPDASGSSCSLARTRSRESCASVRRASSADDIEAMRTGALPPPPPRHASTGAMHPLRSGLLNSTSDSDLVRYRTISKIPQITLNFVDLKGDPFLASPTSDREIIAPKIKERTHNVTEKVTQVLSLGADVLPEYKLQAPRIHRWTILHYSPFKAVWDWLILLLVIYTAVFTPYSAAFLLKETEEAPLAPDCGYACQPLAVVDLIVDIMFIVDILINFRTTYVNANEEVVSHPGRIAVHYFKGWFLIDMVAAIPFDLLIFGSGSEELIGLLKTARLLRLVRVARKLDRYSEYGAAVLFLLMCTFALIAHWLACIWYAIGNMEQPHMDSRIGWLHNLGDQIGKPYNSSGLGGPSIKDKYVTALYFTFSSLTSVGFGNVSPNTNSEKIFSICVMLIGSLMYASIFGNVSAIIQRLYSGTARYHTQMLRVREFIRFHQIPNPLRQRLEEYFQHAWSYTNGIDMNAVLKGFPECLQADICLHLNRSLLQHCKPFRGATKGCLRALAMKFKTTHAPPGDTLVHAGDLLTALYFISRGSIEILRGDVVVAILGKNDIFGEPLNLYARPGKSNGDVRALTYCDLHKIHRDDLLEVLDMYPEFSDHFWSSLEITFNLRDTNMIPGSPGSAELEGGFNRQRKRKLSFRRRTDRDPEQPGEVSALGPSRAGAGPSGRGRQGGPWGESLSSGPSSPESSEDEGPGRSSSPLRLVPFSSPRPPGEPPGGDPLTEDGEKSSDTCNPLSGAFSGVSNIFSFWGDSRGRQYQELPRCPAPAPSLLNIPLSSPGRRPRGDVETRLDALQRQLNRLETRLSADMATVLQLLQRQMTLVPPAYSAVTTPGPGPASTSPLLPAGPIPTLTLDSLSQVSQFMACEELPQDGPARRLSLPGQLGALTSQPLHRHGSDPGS
The assay is described as follows: whole-cell patch-clamp of native IKr tail current. It counts as cell-based. In general terms: In patch-clamp work, channel activity is measured electrically.

The molecule `c1ccc2c(c1)ccc1ccccc12` [Phe, phenanthrene] showed an inhibition at 25 µM of 55.8%.

For the origin of these results see publication PMC12380724, “The air pollutant phenanthrene disrupts calcium cycling and alters repolarization in female sheep ventricular cardiomyocytes” (Physiological Reports, 2025).
